In patent publication US20040235831A1, “Composition for caring for the hair or the eyelashes, containing a pyrazolecarboxamide compound, use thereof for stimulating the growth of the hair and the eyelashes and/or for reducing their loss” (SOCIETE L'OREAL, S.A., priority 2002, published 2004):

Legend:
PGF synthase (PGFS) = biological target: T1, PGF synthase (PGFS) (Homo sapiens, UniProt P42330); assay: Test on PGF synthase (spectrophotometric, 9,10-phenanthrenequinone/β-NADPH, 340 nm); type: biochemical; conditions: concentration that inhibits 50% of the enzymatic activity of PGF synthase
T1 construct: made in house
T1 sequence (P42330 1-323): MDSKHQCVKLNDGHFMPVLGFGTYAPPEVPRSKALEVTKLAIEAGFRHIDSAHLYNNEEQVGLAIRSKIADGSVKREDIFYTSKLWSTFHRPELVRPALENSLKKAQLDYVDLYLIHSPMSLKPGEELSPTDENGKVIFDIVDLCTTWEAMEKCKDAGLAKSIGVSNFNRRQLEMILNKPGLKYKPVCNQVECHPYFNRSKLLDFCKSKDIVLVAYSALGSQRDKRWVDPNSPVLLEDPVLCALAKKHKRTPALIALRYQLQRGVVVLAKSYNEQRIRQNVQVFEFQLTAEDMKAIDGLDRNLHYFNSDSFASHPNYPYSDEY
Protocol: The enzyme PGFS is obtained as described in document FR-A-02/05067, at a concentration of 0.5 mg/ml, as a suspension in a suitable medium, and blocked at −80° C. For the purposes of the test, this suspension is thawed and stored in ice.
In parallel, a 100 mM, pH 6.5 Tris buffer containing 20 μM of 9,10-phenanthrenequinone* (P2896, Sigma-Aldrich, L'isle D'Abeau Chesne, BP 701, 38297, Saint Quentin Fallavier) and 100 μM of β-NADPH (N1630, Sigma-Aldrich, L'isle D'Abeau Chesne, BP 701, 38297, Saint Quentin Fallavier) is prepared in a brown flask (protected from light).
*A stock solution with a titre of 1 mM is prepared in absolute ethanol and brought to 40° C.; the flask is placed in an ultrasound cuvette to facilitate the dissolution of the product.
(§1) 0.950 ml of this buffer (brought to 37° C. beforehand) is introduced into the cuvette of a spectrophotometer (Perkin-Elmer, Lambda 2) thermostatically maintained at 37° C., the measuring wavelength of which is set at 340 nm. 0.05 ml of enzymatic suspension at 37° C. is introduced into the cuvette concomitantly with the recording (corresponding to a reduction in the optical density at 340 nm). The maximum reaction rate is recorded.
The test values (containing compound (I)) are compared with the control value (without compound (I)); the results indicated represent the percentage of inhibition of PGFS at a concentration of 50 μM.

15-PGDH = biological target: T2, 15-PGDH (Homo sapiens, UniProt P15428); assay: Test on 15-PGDH (spectrophotometric, PGE2/β-NAD, 340 nm); type: biochemical
T2 construct: made in house
T2 sequence (P15428 1-266): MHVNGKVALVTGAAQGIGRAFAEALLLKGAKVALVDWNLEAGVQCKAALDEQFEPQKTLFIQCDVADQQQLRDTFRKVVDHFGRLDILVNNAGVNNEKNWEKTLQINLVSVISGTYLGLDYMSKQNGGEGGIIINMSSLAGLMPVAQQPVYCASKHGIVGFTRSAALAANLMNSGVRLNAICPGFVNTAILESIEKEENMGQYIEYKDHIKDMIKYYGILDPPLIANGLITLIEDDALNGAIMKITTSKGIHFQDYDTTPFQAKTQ
Protocol: The enzyme 15-PGDH is obtained as described in patent application FR 02/05067 filed in the name of L'Oréal, as a suspension in a medium adjusted to a concentration of 0.3 mg/ml and then blocked at −80° C. For the purposes of the test, this suspension is thawed and stored in ice.
In parallel, a 100 mM, pH 7.4 Tris buffer containing 0.1 mM of dithiothreitol (D5545, Sigma-Aldrich, L'isle D'Abeau Chesne, BP 701, 38297, Saint Quentin Fallavier), 1.5 mM of β-NAD (N6522, Sigma-Aldrich, L'isle D'Abeau Chesne, BP 701, 38297, Saint Quentin Fallavier), and 50 μM of prostaglandin E2 (P4172, Sigma-Aldrich, L'isle D'Abeau Chesne, BP 701, 38297, Saint Quentin Fallavier) is prepared.
as §1, with “0.965” for “0.950”, “0.035” for “0.05”, “an increase” for “a reduction”

IC50 (PGF synthase (PGFS)): > 75 µM
Selectivity (15-PGDH; IC50fs/IC50dh ratio (PGF synthase vs 15-PGDH)): >7.5
IC50 (15-PGDH; concentration that inhibits 50% of the enzymatic activity of 15-PGDH): 10 µM
SMILES: COc1ccc(-n2ncc(C(=O)N3CCN(C)CC3)c2C)cc1 [Compound 2]
